target: T1, human CXCR6 (Homo sapiens, UniProt O00574); experiment: Radioligand Binding Assay (125I-CXCL16 displacement); details: L1.2 cells stably transfected with human CXCR6 cDNA, 0.1 nM 125I-CXCL16, 4° C., three-hour incubation; read-out: Potency (IC50)
T1 construct: expressed in transfected cells
Method in brief: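 Displacement of 0.1 nM 125I-CXCL16 from human CXCR6 stably expressed in L1.2 cells was measured after a 3 h, 4 °C incubation in HBSS with 0.1% BSA. Filter-bound cpm were counted, and IC50 values came from a 3-parameter nonlinear fit.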

T1 sequence (O00574 whole entry): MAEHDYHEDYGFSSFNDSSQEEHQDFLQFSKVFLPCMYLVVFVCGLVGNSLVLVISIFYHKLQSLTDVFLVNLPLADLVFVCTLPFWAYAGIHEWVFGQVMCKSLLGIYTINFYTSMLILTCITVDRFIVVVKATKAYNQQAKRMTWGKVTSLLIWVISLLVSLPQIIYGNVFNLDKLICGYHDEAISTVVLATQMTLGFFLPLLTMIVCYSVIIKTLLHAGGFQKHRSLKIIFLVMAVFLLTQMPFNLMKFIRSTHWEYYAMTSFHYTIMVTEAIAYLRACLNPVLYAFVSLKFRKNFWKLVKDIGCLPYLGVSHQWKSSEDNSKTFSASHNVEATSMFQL

Compound	IC50 [nM]
COc1cc(NC(=O)[C@@H]2C=CCN2C)ccc1S(=O)(=O)Nc1cccc(C(F)(F)F)c1 [Example 1.194]	2000 to 20000
CCOc1cc(NC(=O)[C@@H](O)C(C)C)ccc1S(=O)(=O)Nc1ccc(C)c(F)c1 [Example 1.195]	200 to 750
O=C(Nc1ccc(S(=O)(=O)Nc2cccc(OC(F)(F)F)c2)c(Cl)c1)[C@@H](CO)c1ccccc1 [Example 1.196]	≤ 200
COc1cc(NC(=O)[C@@H]2C=CCN2)ccc1S(=O)(=O)Nc1cccc(C(F)(F)F)c1 [Example 1.197]	750 to 2000
CCOc1cc(NC(=O)C(O)C2CC2)ccc1S(=O)(=O)Nc1cccc(OC(F)(F)F)c1 (stereo not drawn) [Example 1.198]	≤ 200
CCOc1cc(NC(=O)C(CO)C2CCOC2)ccc1S(=O)(=O)Nc1cccc(OC(F)(F)F)c1 (stereo not drawn) [Example 1.199]	≤ 200
CCOc1cc(NC(=O)c2cccnc2C)ccc1S(=O)(=O)Nc1cccc(OC(F)(F)F)c1 [Example 1.200]	≤ 200
CCc1cc(NC(=O)[C@@H](CO)C(C)C)ccc1S(=O)(=O)Nc1cccc(OC(F)(F)F)c1 [Example 1.201]	≤ 200
COc1cc(NC(=O)c2ccnn2C)ccc1S(=O)(=O)Nc1cccc(Cl)c1 [Example 1.202]	2000 to 20000
COc1c(S(=O)(=O)Nc2cccc(OC(F)(F)F)c2)ccc(NC(=O)c2ccnn2C)c1C [Example 1.203]	2000 to 20000
CCOc1cc(NC(=O)C(CO)c2ccc(F)cc2)ccc1S(=O)(=O)Nc1cccc(OC(F)(F)F)c1 (stereo not drawn) [Example 1.204]	≤ 200
CCOc1cc(NC(=O)[C@@H](O)C(C)C)ccc1S(=O)(=O)Nc1ccc(C)c(OC(F)(F)F)c1 [Example 1.205]	≤ 200
COc1cc(NC(=O)C(CO)c2ccccc2)ccc1S(=O)(=O)Nc1cccc(C(F)(F)F)c1 (stereo not drawn) [Example 1.206]	200 to 750
CCOc1cc(NC(=O)[C@@H](O)Cc2ccccc2)ccc1S(=O)(=O)Nc1cccc(OC(F)(F)F)c1 [Example 1.207]	≤ 200
CCOc1cc(NC(=O)[C@@H](CO)c2ccccc2)ccc1S(=O)(=O)Nc1ccc(F)c(OC(F)(F)F)c1 [Example 1.208]	≤ 200
CCOc1cc(NC(=O)[C@@H](O)C(C)C)ccc1S(=O)(=O)Nc1ccc(F)c(OC(F)(F)F)c1 [Example 1.209]	≤ 200
CCOc1cc(NS(=O)(=O)c2ccc(NC(=O)[C@@H](O)C(C)C)cc2OCC)ccc1Cl [Example 1.210]	200 to 750
CCOc1cc(NC(=O)[C@@H](O)C(C)C)ccc1S(=O)(=O)Nc1ccc(F)c(C2CC2)c1 [Example 1.211]	≤ 200
CCOc1cc(NC(C)=O)ccc1S(=O)(=O)Nc1cccc(C(F)(F)F)c1 [Example 1.212]	2000 to 20000
CCOc1cc(NC(=O)[C@@H](CO)C(C)C)ccc1S(=O)(=O)Nc1ccc(C)c(F)c1 [Example 1.213]	200 to 750
COc1cc(NC(=O)CC2CCNC2)ccc1S(=O)(=O)Nc1cccc(C(F)(F)F)c1 (stereo not drawn) [Example 1.214]	2000 to 20000
CCOc1cc(NC(=O)C2CCOCC2(C)C)ccc1S(=O)(=O)Nc1cccc(OC(F)(F)F)c1 (stereo not drawn) [Example 1.215]	200 to 750
CCOc1cc(NC(=O)[C@@H](O)C(C)C)ccc1S(=O)(=O)Nc1cccc(Cl)c1OC [Example 1.216]	2000 to 20000
CCOc1cc(NC(=O)C(C(=O)O)C(C)C)ccc1S(=O)(=O)Nc1cccc(OC(F)(F)F)c1 (stereo not drawn) [Example 1.217]	≤ 200

Compound	IC50 [nM]
CCOc1cc(NC(=O)C(C(=O)O)C2CCC2)ccc1S(=O)(=O)Nc1cccc(OC(F)(F)F)c1 (stereo not drawn) [Example 1.218]	≤ 200
CCOc1cc(NC(=O)[C@@H](O)c2ccccc2)ccc1S(=O)(=O)Nc1ccc(F)c(OC(F)(F)F)c1 [Example 1.220]	≤ 200
CCOc1cc(NC(=O)[C@@H](CO)c2ccccc2)ccc1S(=O)(=O)Nc1cccc(Cl)c1C [Example 1.221]	2000 to 20000
CCOc1cc(NC(=O)C(O)C2CCC2)ccc1S(=O)(=O)Nc1cccc(OC(F)(F)F)c1 (stereo not drawn) [Example 1.222]	≤ 200
CCOc1cc(NC(=O)[C@@H](O)C(C)C)ccc1S(=O)(=O)Nc1ccc(Cl)c(C)c1 [Example 1.223]	≤ 200
COc1cc(NC(=O)c2ccnn2C)ccc1S(=O)(=O)Nc1ccc(C(F)(F)F)cc1 [Example 1.224]	200 to 750
CCc1cc(NC(=O)c2ccns2)ccc1S(=O)(=O)Nc1cccc(C(F)(F)F)c1 [Example 1.225]	200 to 750
CCOc1cc(NC(=O)[C@H]2CCC=C[C@H]2O)ccc1S(=O)(=O)Nc1cccc(OC(F)(F)F)c1 [Example 1.226]	200 to 750
CCOc1cc(NC(=O)[C@H]2CC[C@](C)(O)CC2)ccc1S(=O)(=O)Nc1cccc(OC(F)(F)F)c1 [Example 1.227]	750 to 2000
COc1cc(NC(=O)c2ccnn2C)ccc1S(=O)(=O)Nc1ccc(OC(F)(F)F)cc1 [Example 1.228]	200 to 750
CCOc1cc(NC(=O)C(CC2CC=CCC2)C(=O)O)ccc1S(=O)(=O)Nc1cccc(OC(F)(F)F)c1 (stereo not drawn) [Example 1.229]	≤ 200
CCOc1cc(NC(=O)CC(O)C2CCCOC2)ccc1S(=O)(=O)Nc1cccc(OC(F)(F)F)c1 (stereo not drawn) [Example 1.230]	750 to 2000
COc1cc(NC(=O)c2ccnn2C)ccc1S(=O)(=O)Nc1cccc(C(C)(C)C)c1 [Example 1.231]	200 to 750
CCc1cc(NC(=O)c2ccnn2C)ccc1S(=O)(=O)Nc1cccc(C(F)(F)F)c1 [Example 1.232]	≤ 200
CCOc1cc(NC(=O)[C@@H](N)c2ccccc2)ccc1S(=O)(=O)Nc1ccc(Cl)c(OC(F)(F)F)c1 [Example 1.234]	≤ 200
COc1cc(NC(=O)[C@@H](CO)c2ccccc2)ccc1S(=O)(=O)Nc1cccc(OC(F)(F)F)c1 [Example 1.235]	200 to 750
CCOc1cc(NC(=O)CC(O)c2cccnc2)ccc1S(=O)(=O)Nc1cccc(OC(F)(F)F)c1 (stereo not drawn) [Example 1.236]	750 to 2000
CCn1nccc1C(=O)Nc1ccc(S(=O)(=O)Nc2cccc(C(F)(F)F)c2)c(OC)c1 [Example 1.238]	200 to 750
COc1cc(NC(=O)c2ccnn2C)ccc1S(=O)(=O)Nc1cccc(OC(F)(F)F)c1 [Example 1.239]	≤ 200
COc1cc(NC(=O)CC2COCCN2)ccc1S(=O)(=O)Nc1cccc(C(F)(F)F)c1 (stereo not drawn) [Example 1.240]	2000 to 20000
CCOc1cc(NC(=O)[C@@H](NC(=O)CC)C(C)C)ccc1S(=O)(=O)Nc1cccc(OC(F)(F)F)c1 [Example 1.241]	≤ 200
COc1cc(NC(=O)c2ccnn2C)ccc1S(=O)(=O)Nc1cccc(C)c1 [Example 1.242]	2000 to 20000
CCOc1cc(NC(=O)[C@@H](N)C(C)CC)ccc1S(=O)(=O)Nc1cccc(OC(F)(F)F)c1 (stereo partly drawn) [Example 1.243]	≤ 200
CCOc1cc(NC(=O)[C@@H](O)C(C)C)ccc1S(=O)(=O)Nc1ccc(C(F)(F)F)cc1 [Example 1.244]	200 to 750

Compound	IC50 [nM]
CCOc1cc(NC(=O)C(C(N)=O)C2CCCC2)ccc1S(=O)(=O)Nc1cccc(OC(F)(F)F)c1 (stereo not drawn) [Example 1.245]	≤ 200
CCOc1cc(NC(=O)C(O)C2C=CCCC2)ccc1S(=O)(=O)Nc1cccc(OC(F)(F)F)c1 (stereo not drawn) [Example 1.246]	≤ 200
COc1cc(NC(=O)c2ccnn2C)ccc1S(=O)(=O)Nc1ccc(Cl)c(Cl)c1 [Example 1.247]	750 to 2000
COc1cc(NC(=O)c2ccnn2C)ccc1S(=O)(=O)Nc1ccc(F)c(C(F)(F)F)c1 [Example 1.248]	750 to 2000
Cc1cc(NC(=O)C2CCOC2)ccc1S(=O)(=O)Nc1cccc(C(F)(F)F)c1 (stereo not drawn) [Example 1.249]	2000 to 20000
CCOc1cc(NC(=O)[C@H]2CC(C)=C(C)C[C@@H]2CO)ccc1S(=O)(=O)Nc1cccc(OC(F)(F)F)c1 [Example 1.250]	≤ 200
Cc1ccc(C(=O)Nc2ccc(S(=O)(=O)Nc3cccc(C(F)(F)F)c3)c(C)c2)cc1 [Example 1.251]	750 to 2000
Cc1cc(NC(=O)c2cnco2)ccc1S(=O)(=O)Nc1cccc(C(F)(F)F)c1 [Example 1.252]	750 to 2000
CCOc1cc(NC(=O)CC(C)O)ccc1S(=O)(=O)Nc1cccc(OC(F)(F)F)c1 (stereo not drawn) [Example 1.253]	200 to 750
COc1cc(NC(=O)c2cc(C)nn2C)ccc1S(=O)(=O)Nc1cccc(C(F)(F)F)c1 [Example 1.254]	200 to 750
Cc1cc(NC(=O)c2cnoc2C)ccc1S(=O)(=O)Nc1cccc(C(F)(F)F)c1 [Example 1.255]	200 to 750
Cn1nccc1C(=O)Nc1ccc(S(=O)(=O)Nc2cccc(C(F)(F)F)c2)c(F)c1 [Example 1.256]	2000 to 20000
CCOc1cc(NC(=O)C2c3ccccc3CC2O)ccc1S(=O)(=O)Nc1cccc(OC(F)(F)F)c1 (stereo not drawn) [Example 1.257]	≤ 200
CCOc1cc(NC(=O)[C@@H](CO)c2ccccc2)ccc1S(=O)(=O)Nc1ccc(Cl)c(C)c1 [Example 1.258]	200 to 750
CCOc1cc(NC(=O)[C@@H](O)[C@@H](C)CC)ccc1S(=O)(=O)Nc1ccc(F)c(OC(F)(F)F)c1 [Example 1.259]	≤ 200
CCOc1cc(NC(=O)c2cccn(C)c2=O)ccc1S(=O)(=O)Nc1cccc(OC(F)(F)F)c1 [Example 1.260]	2000 to 20000
CCOc1cc(NC(=O)[C@@H](O)C(C)C)ccc1S(=O)(=O)Nc1cccc(C(C)(F)F)c1 [Example 1.261]	≤ 200
CCOc1cc(NC(=O)[C@@H](O)c2ccccc2)ccc1S(=O)(=O)Nc1ccc(Cl)c(OC(F)(F)F)c1 [Example 1.262]	≤ 200
CCOc1cc(NC(=O)[C@@H](O)C(C)C)ccc1S(=O)(=O)Nc1cccc(C(C)C)c1 [Example 1.263]	≤ 200
CC(=O)Nc1ccc(S(=O)(=O)Nc2cccc(C(F)(F)F)c2)c(OC(F)(F)F)c1 [Example 1.264]	2000 to 20000
Cc1cc(NC(=O)C2(C)CCCCC2)ccc1S(=O)(=O)Nc1cccc(C(F)(F)F)c1 [Example 1.265]	2000 to 20000
Cc1cc(NC(=O)[C@@H](O)c2ccccc2)ccc1S(=O)(=O)Nc1cccc(OC(F)(F)F)c1 [Example 1.266]	200 to 750
CCOc1cc(NC(=O)[C@@H](O)C(C)C)ccc1S(=O)(=O)Nc1cccc(OC(F)(F)F)c1C [Example 1.267]	2000 to 20000
Cc1cc(NC(=O)c2ccon2)ccc1S(=O)(=O)Nc1cccc(C(F)(F)F)c1 [Example 1.268]	750 to 2000

— patent US20230339851A1, “CXCR6 SULFONAMIDE COMPOUNDS” (CHEMOCENTRYX, INC., priority 2022, published 2023)
